{
  "source": "ChEMBL document CHEMBL4130353",
  "about": "“2-Substituted 3,7,8-trimethylnaphtho[1,2-b]furan-4,5-diones as specific L-shaped NQO1-mediated redox modulators for the treatment of non-small cell lung cancer” (Eur J Med Chem, 2017)",
  "key": {"[1]": {"biological_target": "NAD(P)H dehydrogenase [quinone] 1 (Homo sapiens) (UniProt P15559)", "sequence (P15559 whole entry)": "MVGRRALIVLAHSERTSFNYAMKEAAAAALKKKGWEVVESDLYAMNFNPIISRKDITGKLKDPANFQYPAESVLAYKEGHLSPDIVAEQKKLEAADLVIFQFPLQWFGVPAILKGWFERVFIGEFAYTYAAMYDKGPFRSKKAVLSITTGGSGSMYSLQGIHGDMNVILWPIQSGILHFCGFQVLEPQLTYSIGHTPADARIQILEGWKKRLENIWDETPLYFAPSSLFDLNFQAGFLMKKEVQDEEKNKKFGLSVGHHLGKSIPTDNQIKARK", "assay": "Substrate activity at NQO1 in human A549 cells assessed as induction of ROS-induced Akt phosphorylation at S473 after 3 hrs by Western blot analysis", "assay_type": "cell-based"}, "A549 [2]": {"tested_on": "A549", "assay": "Effect on total ERK protein levels in human A549 cells at 1 uM after 3 hrs by Western blot analysis relative to control", "assay_type": "ADME, cell-based", "settings": "a549, 3 h"}, "A549 [3]": {"tested_on": "A549", "assay": "Effect on total p38 protein levels in human A549 cells at 10 uM after 3 hrs in presence of NAC by Western blot analysis relative to control", "assay_type": "ADME, cell-based", "settings": "a549, 3 h"}, "[4]": {"biological_target": "NAD(P)H dehydrogenase [quinone] 1 (Homo sapiens) (UniProt P15559)", "assay": "Substrate activity at NQO1 in human A549 cells assessed as induction of ROS-induced Akt phosphorylation at S473 at 10 uM after 3 hrs by Western blot analysis relative to control", "assay_type": "cell-based"}, "[5]": {"biological_target": "NAD(P)H dehydrogenase [quinone] 1 (Homo sapiens) (UniProt P15559)", "assay": "Substrate activity at NQO1 in human A549 cells assessed as induction of ROS-induced Akt phosphorylation at […] at 10 uM after 3 hrs in presence of NAC by Western blot analysis relative to control", "assay_type": "cell-based"}, "[6]": {"biological_target": "NAD(P)H dehydrogenase [quinone] 1 (Homo sapiens) (UniProt P15559)", "assay": "Substrate activity at NQO1 in human A549 cells assessed as induction of enzyme-catalyzed lipid peroxidation by measuring MDA equivalents per protein at 10 uM after 24 hrs by TBARS assay", "assay_type": "cell-based"}, "Danio rerio": {"organism": "Danio rerio", "assay": "Hepatotoxicity in 48 hrs post fertilized transgenic liver zebrafish larvae model expressing LFABP:EGFP protein at 10 uM measured after 48 hrs post dose by fluorescence based assay", "assay_type": "organism-based", "settings": "in vivo"}, "[7]": {"biological_target": "NAD(P)H dehydrogenase [quinone] 1 (Homo sapiens) (UniProt P15559)", "assay": "Substrate activity at NQO1 in human A549 cells assessed as induction of ROS-induced ERK phosphorylation at 5 uM after 3 hrs by Western blot analysis relative to control", "assay_type": "cell-based"}, "[8]": {"biological_target": "NAD(P)H dehydrogenase [quinone] 1 (Homo sapiens) (UniProt P15559)", "assay": "Substrate activity at NQO1 in human A549 cells assessed as induction of ROS-induced JNK phosphorylation after 3 hrs by Western blot analysis", "assay_type": "cell-based"}, "[9]": {"biological_target": "NAD(P)H dehydrogenase [quinone] 1 (Homo sapiens) (UniProt P15559)", "assay": "Substrate activity at NQO1 in human A549 cells assessed as induction of ROS-induced ERK phosphorylation at 10 uM after 3 hrs in presence of DIC by Western blot analysis relative to control", "assay_type": "cell-based"}, "L02": {"tested_on": "L02", "assay": "Cytotoxicity against human L02 cells assessed as cell growth inhibition preincubated for 24 hrs followed by compound washout measured after 72 hrs by MTT assay", "assay_type": "cell-based"}, "A549 [10]": {"tested_on": "A549", "assay": "Reduction of intracellular GSH levels in human A549 cells xenografted in athymic nude mouse at 15 to 30 mg/kg, iv administered every other day for 3 weeks by fluorescence-based assay", "assay_type": "functional, organism-based"}, "A549 [11]": {"tested_on": "A549", "assay": "Effect on total p38 protein levels in human A549 cells at 5 uM after 3 hrs by Western blot analysis relative to control", "assay_type": "ADME, cell-based", "settings": "a549, 3 h"}, "A549 [12]": {"tested_on": "A549", "assay": "Effect on total p38 protein levels in human A549 cells at 1 uM after 3 hrs by Western blot analysis relative to control", "assay_type": "ADME, cell-based", "settings": "a549, 3 h"}, "A549 [13]": {"tested_on": "A549", "assay": "Induction of apoptosis in human A549 cells assessed as nuclei condensation at 0.1 to 5 uM after 24 hrs by DAPI-staining based microscopy", "assay_type": "functional, cell-based"}, "[14]": {"biological_target": "NAD(P)H dehydrogenase [quinone] 1 (Homo sapiens) (UniProt P15559)", "assay": "Substrate activity at NQO1 in human A549 cells assessed as induction of ROS-induced Akt phosphorylation at S473 at 10 uM after 3 hrs in presence of DIC by Western blot analysis relative to control", "assay_type": "cell-based"}, "[15]": {"biological_target": "NAD(P)H dehydrogenase [quinone] 1 (Homo sapiens) (UniProt P15559)", "assay": "Substrate activity at NQO1 in human A549 cells assessed as induction of ROS-induced ERK phosphorylation at 10 uM after 3 hrs in presence of NAC by Western blot analysis relative to control", "assay_type": "cell-based"}, "[16]": {"biological_target": "NAD(P)H dehydrogenase [quinone] 1 (Homo sapiens) (UniProt P15559)", "assay": "Substrate activity at NQO1 in human A549 cells assessed as induction of ROS-induced Akt phosphorylation at S473 at 5 uM after 3 hrs by Western blot analysis relative to control", "assay_type": "cell-based"}, "A549 [17]": {"tested_on": "A549", "assay": "Effect on total p38 protein levels in human A549 cells at 10 uM after 3 hrs by Western blot analysis relative to control", "assay_type": "ADME, cell-based", "settings": "a549, 3 h"}},
  "note": "The source made the active and inactive calls. No cut-off for these calls is given here.",
  "data": [
    {"smiles": "Cc1cc2c(cc1C)-c1oc(CNc3ccc(CN4CCOCC4)cc3)c(C)c1C(=O)C2=O", "values": [
      {"measurement": "Activity", "setting": "[1]", "value": "Dose-dependent effect"},
      {"measurement": "fold change (FC)", "setting": "A549 [2]", "value": 1.01},
      {"measurement": "fold change (FC)", "setting": "A549 [3]", "value": 0.99},
      {"measurement": "fold change (FC)", "setting": "[4]", "value": 2.05},
      {"measurement": "fold change (FC)", "setting": "[5]", "value": 2.8},
      {"measurement": "Activity", "setting": "[6]", "value": 18.6, "unit": "nmol/mg"},
      {"measurement": "Activity", "setting": "Danio rerio", "value": "Non-Toxic"},
      {"measurement": "fold change (FC)", "setting": "[7]", "value": 2.41},
      {"measurement": "Activity", "setting": "[8]", "value": "Dose-dependent effect"},
      {"measurement": "fold change (FC)", "setting": "[9]", "value": 1.27},
      {"measurement": "IC50", "setting": "L02", "value": 35, "unit": "µM"},
      {"measurement": "Activity", "setting": "A549 [10]", "value": "Active"},
      {"measurement": "fold change (FC)", "setting": "A549 [11]", "value": 1.1},
      {"measurement": "fold change (FC)", "setting": "A549 [12]", "value": 0.93},
      {"measurement": "Activity", "setting": "A549 [13]", "value": "Active"},
      {"measurement": "fold change (FC)", "setting": "[14]", "value": 1.36},
      {"measurement": "fold change (FC)", "setting": "[15]", "value": 2.21},
      {"measurement": "fold change (FC)", "setting": "[16]", "value": 2.01},
      {"measurement": "fold change (FC)", "setting": "A549 [17]", "value": 1.1}
    ]}
  ]
}
